Read-outs that look alike come from different tables or passages of the source.
How the values were obtained:
[1] = tested on: HIV-1 laboratory strain, NL4-3; assay: MT-4 cytoprotection assay; type: cell-based
Summary of the method: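 MT-4 cells mock- or batch-infected with NL4-3 (MOI 0.0005) for 2 h, washed, then cultured 4 days with increasing compound concentrations. Viability read by WST-1 tetrazolium reduction: cytoprotection in infected cells, toxicity in mock-infected cells.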

[2] = tested on: HIV-1NL4-3; assay: P4-MAGI assay; type: cell-based
Summary of the method: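 HeLa-derived CD4+ P4 cells carrying an LTR-driven lacZ were infected with HIV-1NL4-3 at MOI 1 with DEAE-Dextran, then compound added in increasing concentrations right after virus; infection reported as Tat-induced β-galactosidase. TC50 measured by WST-1 in mock-infected cells.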

[3] = Human immunodeficiency virus 1, NL43, MT4, 96 h, MT-4 cells, four days incubation, WST-1 readout, read-out: MT4 EC50
[4] = Human immunodeficiency virus 1, NL43, less than about 100 nm, read-out: MT-4 assay EC50 (concentration of compound that reduces the virus induced cytopathic effect by 50%)
[5] = Human immunodeficiency virus 1, 24 h, P4 cells, 24 hour incubation, β-galactosidase expression, read-out: P4-MAGI IC50
[6] = Human immunodeficiency virus 1, text statement, less than about 100 nm, read-out: P4-MAGI assay IC50

Structure (SMILES)	EC50 [1, 3] [nM]	EC50 [1, 4] [nM]	IC50 [2, 5] [nM]	IC50 [2, 6] [nM]
C=C(C)[C@@H]1CC[C@]2(C(=O)NCCc3cccc(C(=O)NCc4ccc(C(=O)O)cc4)c3)CC[C@]3(C)C(CCC4[C@@]5(C)CC[C@H](O)C(C)(C)C5CC[C@]43C)C12 (some centres unmarked) [Example 67]	23	< 100	7.5	< 100
C=C(C)[C@@H]1CC[C@]2(C(=O)NCCc3cccc(C(=O)NCCc4ccc(C(=O)O)cc4)c3)CC[C@]3(C)C(CCC4[C@@]5(C)CC[C@H](O)C(C)(C)C5CC[C@]43C)C12 (some centres unmarked) [Example 68]	64	< 100	15.2	< 100
C=C(C)[C@@H]1CC[C@]2(C(=O)NCCc3cccc(C(=O)NCc4ccc(C(=O)O)cc4F)c3)CC[C@]3(C)C(CCC4[C@@]5(C)CC[C@H](O)C(C)(C)C5CC[C@]43C)C12 (some centres unmarked) [Example 69]	670		11	< 100
C=C(C)[C@@H]1CC[C@]2(C(=O)NCCc3cccc(C(=O)NCc4ccc(C(=O)O)s4)c3)CC[C@]3(C)C(CCC4[C@@]5(C)CC[C@H](O)C(C)(C)C5CC[C@]43C)C12 (some centres unmarked) [Example 70]	1.6	< 100	19.7	< 100
C=C(C)[C@@H]1CC[C@]2(C(=O)NCCc3cccc(C(=O)NCC(N)=O)c3)CC[C@]3(C)C(CCC4[C@@]5(C)CC[C@H](O)C(C)(C)C5CC[C@]43C)C12 (some centres unmarked) [Example 72]	10000		194	
C=C(C)[C@@H]1CC[C@]2(C(=O)NCCc3cccc(C(=O)NCc4cccc(C(=O)O)c4F)c3)CC[C@]3(C)C(CCC4[C@@]5(C)CC[C@H](O)C(C)(C)C5CC[C@]43C)C12 (some centres unmarked) [Example 73]	1.5	< 100	16.2	< 100
C=C(C)[C@@H]1CC[C@]2(C(=O)NCCc3cccc(C(=O)NCc4cccc(C(=O)OC)c4F)c3)CC[C@]3(C)C(CCC4[C@@]5(C)CC[C@H](O)C(C)(C)C5CC[C@]43C)C12 (some centres unmarked) [Example 74]	0.8	< 100	27.6	< 100
C=C(C)[C@@H]1CC[C@]2(C(=O)NCCc3cccc(C(=O)NCCc4ccc(C(=O)O)cc4F)c3)CC[C@]3(C)C(CCC4[C@@]5(C)CC[C@H](O)C(C)(C)C5CC[C@]43C)C12 (some centres unmarked) [Example 75]	1.4	< 100	36.3	< 100
C=C(C)[C@@H]1CC[C@]2(C(=O)NCCc3cccc(C(=O)NCc4ccc(C(=O)O)cn4)c3)CC[C@]3(C)C(CCC4[C@@]5(C)CC[C@H](O)C(C)(C)C5CC[C@]43C)C12 (some centres unmarked) [Example 76]	89	< 100	10.4	< 100
C=C(C)[C@@H]1CC[C@]2(C(=O)NCc3cccc(CNCc4nc5ccc(C(=O)O)cc5[nH]4)c3)CC[C@]3(C)C(CCC4[C@@]5(C)CC[C@H](O)C(C)(C)C5CC[C@]43C)C12 (some centres unmarked) [Example 80]	1000		242	
C=C(C)[C@@H]1CC[C@]2(C(=O)NCc3ccnc(C(=O)NCCc4ccc(C(=O)O)cc4)c3)CC[C@]3(C)C(CCC4[C@@]5(C)CC[C@H](O)C(C)(C)C5CC[C@]43C)C12 (some centres unmarked) [Example 92]	4870		121	
C=C(C)[C@@H]1CC[C@]2(C(=O)NCCc3cccc(C(=O)NCc4ccc(C(=O)OC)cc4)c3F)CC[C@]3(C)C(CCC4[C@@]5(C)CC[C@H](O)C(C)(C)C5CC[C@]43C)C12 (some centres unmarked) [Example 93]	40	< 100	33.9	< 100
C=C(C)[C@@H]1CC[C@]2(C(=O)NCCc3cccc(C(=O)NCc4ccc(C(=O)O)cc4)c3F)CC[C@]3(C)C(CCC4[C@@]5(C)CC[C@H](O)C(C)(C)C5CC[C@]43C)C12 (some centres unmarked) [Example 94]	290		70.5	< 100
C=C(C)[C@@H]1CC[C@]2(C(=O)NCc3cc(C(=O)NCCc4ccc(C(=O)O)cc4)ccc3F)CC[C@]3(C)C(CCC4[C@@]5(C)CC[C@H](O)C(C)(C)C5CC[C@]43C)C12 (some centres unmarked) [Example 95]	1.5	< 100	11.2	< 100
C=C(C)[C@@H]1CC[C@]2(C(=O)NCc3cc(C(=O)NCCc4ccc(C(=O)OC)cc4)ccc3F)CC[C@]3(C)C(CCC4[C@@]5(C)CC[C@H](O)C(C)(C)C5CC[C@]43C)C12 (some centres unmarked) [Example 96]	3.5	< 100	33	< 100
C=C(C)[C@@H]1CC[C@]2(C(=O)NCc3cc(C(=O)NCCc4cccc(C(=O)O)c4)ccc3F)CC[C@]3(C)C(CCC4[C@@]5(C)CC[C@H](O)C(C)(C)C5CC[C@]43C)C12 (some centres unmarked) [Example 97]	1	< 100	23.7	< 100
C=C(C)[C@@H]1CC[C@]2(C(=O)NCc3cc(C(=O)NCCc4cccc(C(=O)OC)c4)ccc3F)CC[C@]3(C)C(CCC4[C@@]5(C)CC[C@H](O)C(C)(C)C5CC[C@]43C)C12 (some centres unmarked) [Example 98]	13	< 100	57.7	< 100
C=C(C)[C@@H]1CC[C@]2(C(=O)NCc3cc(C(=O)NCc4ccc(C(=O)O)cc4)ccc3F)CC[C@]3(C)C(CCC4[C@@]5(C)CC[C@H](O)C(C)(C)C5CC[C@]43C)C12 (some centres unmarked) [Example 99]	2.8	< 100	20.1	< 100
C=C(C)[C@@H]1CC[C@]2(C(=O)NCc3cc(C(=O)NCc4ccc(C(=O)OC)cc4)ccc3F)CC[C@]3(C)C(CCC4[C@@]5(C)CC[C@H](O)C(C)(C)C5CC[C@]43C)C12 (some centres unmarked) [Example 100]	1.3	< 100	21.5	< 100
C=C(C)[C@@H]1CC[C@]2(C(=O)NCc3cc(C(=O)NCc4cccc(C(=O)O)c4)ccc3F)CC[C@]3(C)C(CCC4[C@@]5(C)CC[C@H](O)C(C)(C)C5CC[C@]43C)C12 (some centres unmarked) [Example 101]	3.2	< 100	28.3	< 100
C=C(C)[C@@H]1CC[C@]2(C(=O)NCc3cc(C(=O)NCc4cccc(C(=O)OC)c4)ccc3F)CC[C@]3(C)C(CCC4[C@@]5(C)CC[C@H](O)C(C)(C)C5CC[C@]43C)C12 (some centres unmarked) [Example 102]	0.6	< 100	22	< 100
C=C(C)[C@@H]1CC[C@]2(C(=O)NCc3ccc(F)c(C(=O)NCCc4ccc(C(=O)O)cc4)c3)CC[C@]3(C)C(CCC4[C@@]5(C)CC[C@H](O)C(C)(C)C5CC[C@]43C)C12 (some centres unmarked) [Example 103]	7.3	< 100	69.3	< 100
C=C(C)[C@@H]1CC[C@]2(C(=O)NCc3ccc(F)c(C(=O)NCCc4cccc(C(=O)O)c4)c3)CC[C@]3(C)C(CCC4[C@@]5(C)CC[C@H](O)C(C)(C)C5CC[C@]43C)C12 (some centres unmarked) [Example 105]	8.5	< 100	62.1	< 100
C=C(C)[C@@H]1CC[C@]2(C(=O)NCc3ccc(F)c(C(=O)NCc4ccc(C(=O)O)cc4)c3)CC[C@]3(C)C(CCC4[C@@]5(C)CC[C@H](O)C(C)(C)C5CC[C@]43C)C12 (some centres unmarked) [Example 107]	130		103	
C=C(C)[C@@H]1CC[C@]2(C(=O)NCc3ccc(F)c(C(=O)NCc4ccc(C(=O)OC)cc4)c3)CC[C@]3(C)C(CCC4[C@@]5(C)CC[C@H](O)C(C)(C)C5CC[C@]43C)C12 (some centres unmarked) [Example 108]	100	< 100	109	

Reference: patent US20090275583A1, “ANTIVIRAL COMPOUNDS AND USE THEREOF” (Myriad Genetics, Incorporated, priority 2006, published 2009)
